Common to all, as to test: DTP human tumour cell line panel, 48 h
The test system of experiment [1] is OVCAR-5 ovarian.
Experiment [2] has as its system UACC-62 melanoma.
For experiment [3], the system named is M14 melanoma.
For experiment [4], the system named is SK-MEL-5 melanoma.
Experiment [5] deals with U251 CNS.
Experiment [6] concerns SNB-19 CNS.
For experiment [7], the system named is SK-OV-3 ovarian.
The subject of experiment [8] is NCI-H23 lung.
The subject of experiment [9] is SK-MEL-2 melanoma.
The subject of experiment [10] is PC-3 prostate.

In PubChem BioAssay (NCI) one finds TGI and GI50 data, which are given here for 26 compounds.

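Cells were grown in 96-well plates and exposed to each compound for 48 hours at five concentrations; endpoints were interpolated linearly between bracketing concentrations, or set to the highest concentration if not reached. GI50: concentration for 50% inhibition of growth. TGI: concentration producing complete growth inhibition.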

For `COC(=O)/C=C/C1C(C(=O)OC)C2(C(=O)OC)CCC1(C(=O)OC)N2` (stereo not drawn), the TGI in experiment [1], in experiment [2], in experiment [3], in experiment [4], in experiment [5] and in experiment [6] was over 100 µM each time. Moreover, the TGI in experiment [7], in experiment [8] and in [9] was over 100 µM each time.

In the case of `O=C(Nc1ccc([N+](=O)[O-])cc1)C1C(=O)C(=O)N(c2ccc([N+](=O)[O-])cc2)C1=O` (stereo not drawn), the TGI in [1] was over 100 µM; in experiment [2] it was 19.5 µM; in experiment [3], over 100 µM; in experiment [4], over 100 µM; in [5], over 100 µM; in experiment [6], over 100 µM. Moreover, the TGI in experiment [7], in experiment [8] and in experiment [9] was over 100 µM throughout.

Consider `O=C1CSC(Cc2nc3ccccc3[nH]2)=N1`, for which the TGI was determined as 57.5 µM in experiment [1]; 37.7 µM in experiment [2]; 33.4 µM in experiment [3]; 26.6 µM in experiment [4]; 49 µM in experiment [5]; 80.8 µM in experiment [6]. Moreover, the TGI in experiment [7] amounted to 51.3 µM; in experiment [8], 43.8 µM; in experiment [9], 38.4 µM.

Consider `O=C(/C=C/c1ccccc1)/C=C/c1ccccc1`, for which the TGI in [1] is over 100 µM; in [2] it was 87.1 µM; in experiment [3], 39.8 µM; in experiment [4], over 100 µM; in [5] it was 43.5 µM; in experiment [7], over 100 µM. Further, the TGI in experiment [8] was 82.4 µM; in experiment [9], over 100 µM.

`CCCCCCCCCc1cc(=O)c2c(O)cccc2o1`: the TGI in experiment [1] is over 100 µM; in experiment [2] it was over 100 µM; in experiment [3], over 100 µM; in experiment [4] it was 46.6 µM; in experiment [5] it was over 100 µM; in experiment [6] it was over 100 µM. Also, the TGI in experiment [7] was over 100 µM; in experiment [8], over 100 µM; in experiment [9] it was 64.7 µM.

For the compound `CN=NN(C)C(=O)NC`, the total growth inhibition concentration (TGI) in experiment [1], in [2], in experiment [3], in experiment [4], in [5] and in experiment [6] was over 100 µM in each case. Further, the TGI in [7], in experiment [8] and in [9] was over 100 µM in each case.

As for `CCOC(=O)c1[nH]c(COC(C)=O)c(CCCOC(C)=O)c1CCCOC(C)=O`, the TGI in [1], in experiment [5], in experiment [6], in experiment [7], in experiment [8] and in experiment [9] was over 100 µM throughout.

Take `Cc1cc(C)n(CCNCCn2nc(C)cc2C)n1`: the TGI in experiment [2], in experiment [3], in [4], in experiment [5], in experiment [6] and in experiment [7] was over 100 µM throughout. The TGI was over 100 µM in [8] and over 1 µM in [9].

Consider `CN(C)Cc1c[nH]c2c1C(=O)c1c(c(O)c3ccccc3c1O)C2=O`, for which the GI50 in [1] is 14.3 µM; in experiment [2], 16.3 µM; in [3], 17.2 µM; in experiment [4], 11.2 µM; in [5], 5.56 µM; in [6], 8.94 µM. For the same compound, the GI50 was 52 µM in experiment [7], 9.34 µM in experiment [8] and 5.71 µM in experiment [10]. Moreover, the TGI is 27.3 µM in experiment [1]; 30.1 µM in experiment [2]; 40.4 µM in experiment [3]; 23.3 µM in [4]; 18.7 µM in experiment [5]; 43.4 µM in experiment [6]. Further, the results for the TGI in experiment [7], in experiment [8] and in experiment [10] were over 100 µM, 24.9 µM and 22.2 µM, respectively.

For `O=C(CCC/C(CC(=O)c1ccc(Br)cc1)=N\O)Nc1ccccc1`, the TGI in [1], in experiment [2], in [3], in experiment [4], in experiment [5] and in [6] was over 100 µM in each case. The TGI in experiment [8] and in [9] was over 100 µM each time.

For `CC(C)(C)N1CC2(CCCCC2)C1=O`, the TGI in [1], in experiment [2], in experiment [3], in experiment [4], in experiment [5] and in experiment [6] was over 100 µM each time. In addition, the TGI in experiment [7], in experiment [8] and in experiment [9] was over 100 µM throughout.

Consider `CC(=O)OCC1OC([S-])C(OC(C)=O)C(OC(C)=O)C1OC(C)=O.CC[PH+](CC)CC.CC[PH+](CC)CC.[Au].[Au]` (stereo not drawn), for which the GI50 in experiment [1] was 1.59 µM; in experiment [2] it was 0.119 µM; in [3], 0.14 µM; in [4], 0.132 µM; in experiment [5] it was 0.149 µM; in experiment [6], 0.197 µM. Besides, the GI50 in experiment [7] was 1.68 µM; in [8] it was 0.245 µM; in experiment [9], 0.187 µM. Further, the TGI in [1] was found to be 2.96 µM; in experiment [2], 0.307 µM; in experiment [3] it was 0.322 µM; in experiment [4], 0.346 µM; in [5] it was 0.306 µM; in [6] it was 0.552 µM. Also, the TGI in experiment [7] amounted to 3.05 µM; in [8], 1.07 µM; in experiment [9], 0.49 µM.

Turning to `CCOC(=O)CCc1c(C)c2c(OC(C)=O)cc(OC(C)=O)cc2oc1=O`, the total growth inhibition concentration (TGI) was over 100 µM in experiment [1]; over 100 µM in experiment [3]; over 100 µM in experiment [5]; over 100 µM in experiment [6]; over 100 µM in experiment [8]; 82.2 µM in experiment [9].

As for `O/N=C\c1c(O)ccc2ccccc12`, the TGI in experiment [1], in [2], in experiment [3], in [4], in [5] and in experiment [6] was over 100 µM each time. Besides, the TGI in experiment [7], in [8] and in [10] was over 100 µM in each case.

As to `N#CC(/C(=N/NC(=O)C(=O)NN)C(=O)NC12CC3CC(CC(C3)C1)C2)c1ccccc1` (stereo not drawn), the TGI in experiment [1], in experiment [2], in experiment [3], in [4], in experiment [5] and in experiment [6] was over 100 µM in each case. The TGI in [7], in experiment [8] and in [9] was over 100 µM throughout.

For the compound `COc1ccc(-c2cc(-c3cccn3C)c(C#N)c(N)n2)cc1OC`, the GI50 is over 100 µM in [1]; 86.3 µM in [2]; over 100 µM in experiment [4]; over 100 µM in [5]; over 100 µM in experiment [6]; over 100 µM in experiment [7]. Besides, the GI50 is over 100 µM in experiment [8], over 100 µM in experiment [9] and 99 µM in [10]. For the same compound, the TGI in experiment [1], in [2], in experiment [4], in experiment [5], in experiment [6] and in [7] was over 100 µM throughout. Besides, the TGI in [8], in experiment [9] and in experiment [10] was over 100 µM throughout.

With `O=C(CCC(=O)Nc1cccc(Cl)c1)CC(=O)c1ccc(Cl)cc1`, the TGI in experiment [1], in experiment [2], in experiment [3], in experiment [6], in experiment [7] and in experiment [8] was over 100 µM throughout. Also, the TGI in experiment [9] was over 100 µM.

Regarding `O=C(CN1CCCCC1)N1CCc2c([nH]c3ccccc23)C1c1cccnc1` (stereo not drawn), the TGI in [1], in experiment [2], in [3], in [4], in experiment [5] and in experiment [6] was over 100 µM each time. Besides, the concentration for total growth inhibition (TGI) in experiment [7] and in experiment [8] was over 100 µM in each case.

Regarding `O=C(/C=C/c1c(O)ccc2ccccc12)c1ccc2ccccc2c1`, the TGI in experiment [1], in experiment [2], in experiment [5], in experiment [6], in experiment [7] and in experiment [8] was over 100 µM in each case. The compound further showed a TGI in experiment [9] of over 100 µM.

`NC1CCCC[C@H]1N.N[C@@H]1CCCC[C@@H]1N.O=C(P(=O)([O-])[O-])P(=O)([O-])[O-].[Pt+4].[Pt+4]`: the GI50 in experiment [1], in experiment [2], in [3], in experiment [4], in experiment [5] and in experiment [6] was over 100 µM in each case. The GI50 in experiment [7], in experiment [8] and in experiment [9] was over 100 µM in each case. For the same compound, the concentration for total growth inhibition (TGI) in experiment [1], in experiment [2], in [3], in experiment [4], in experiment [5] and in experiment [6] was over 100 µM throughout. The concentration for total growth inhibition (TGI) in [7], in experiment [8] and in experiment [9] was over 100 µM throughout.

Turning to `CCOC(=O)[C@H](CCCNC(=O)OC(C)(C)C)NCc1ccc(OC)c(OC)c1`, the TGI in [1], in experiment [2], in experiment [3], in experiment [4], in [5] and in [6] was over 100 µM each time. Also, the total growth inhibition concentration (TGI) in experiment [7], in experiment [8] and in experiment [9] was over 100 µM each time.

In the case of `O=S(O)CCCCSSCc1ccccc1CSSCCCCS(=O)O`, the total growth inhibition concentration (TGI) in experiment [1] was over 100 µM; in experiment [2] it was 25.3 µM; in experiment [3] it was 26.7 µM; in [4], 23.2 µM; in [5], over 100 µM; in experiment [6] it was over 100 µM. The TGI is over 100 µM in [7], 61.8 µM in experiment [8] and over 100 µM in experiment [9].

Take `COC(COC(=O)N1CCN(C=O)CC1)C1=C(N2CC2)C(=O)C(C)=C(N2CC2)C1=O` (stereo not drawn): the TGI in [1] turned out to be 8.64 µM; in experiment [2], 1.35 µM; in [3] it was 1.34 µM; in experiment [4], 0.7 µM; in experiment [5] it was 2.71 µM; in [6], 13.4 µM. The TGI was found to be 2.11 µM in [7], 0.926 µM in experiment [8] and 3.24 µM in experiment [10].

`O=C(CSc1nnc(-c2ccccc2NC(=O)C(F)(F)F)c(=O)[nH]1)NC(=O)Nc1ccccc1`: the concentration for total growth inhibition (TGI) in experiment [1], in experiment [2], in experiment [3], in experiment [5], in experiment [6] and in experiment [7] was over 100 µM throughout. Further, the TGI in experiment [8] and in [9] was over 100 µM in each case.

On to `Nc1nc(Nc2ccccc2)c2ncn(Cc3cc4c(cc3Br)OCO4)c2n1`, for which the GI50 in [1] was 0.282 µM; in experiment [2], 0.0537 µM; in experiment [4] it was 0.0485 µM; in experiment [5], 0.12 µM; in experiment [6] it was 0.0686 µM; in [7], 0.0373 µM. For the same compound, the results for the concentration for 50% growth inhibition (GI50) in experiment [8], in experiment [9] and in experiment [10] were 0.0187 µM, 0.0546 µM and 0.0801 µM, respectively. Moreover, the TGI in experiment [1] was over 80.3 µM; in experiment [2] it was 28.4 µM; in experiment [4] it was 0.278 µM; in [5], 1.45 µM; in experiment [6], 22.3 µM; in experiment [7], 2.36 µM. Besides, the TGI in experiment [8] is over 100 µM; in experiment [9], 42.3 µM; in [10], 46.9 µM.

For `Cc1n(Cc2ccc3ccccc3c2)cc[n+]1Cc1ccc2ccccc2c1`, the GI50 in [1] was 1.5 µM; in experiment [2], 0.843 µM; in experiment [3], 1.12 µM; in experiment [4], 0.628 µM; in [5] it was 0.818 µM; in experiment [6], 0.676 µM. For the same compound, the GI50 was 1.81 µM in experiment [7], 0.717 µM in [8] and 1.06 µM in [10]. Moreover, the TGI in [1] was 5.81 µM; in experiment [2], 2.42 µM; in experiment [3] it was 3.46 µM; in experiment [4] it was 1.87 µM; in experiment [5], 7.98 µM; in experiment [6], 3.13 µM. Also, the TGI amounted to 7.38 µM in experiment [7], 2.93 µM in experiment [8] and 11.6 µM in experiment [10].
